According to patent US5191079A, “Quinolinecarboxylic acid derivatives” (priority 1990, dated 1993):
Converted amounts (≈) assume the structure as drawn.

Assays:
Format in all cases: cell-based
[1] = test system: Acinetobacter calcoaceticus Ac 54; test: MIC, Experiment 1; details: AC54, A. calcoaceticus Ac 54, Gram -, read-out: Min. inhib. concentr. (MIC)
Outline: (§1)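 Stock solutions (5000 μg/ml, in DMSO or water) were diluted to 1000 μg/ml working standards. MICs were measured per the Japan Society of Chemotherapy procedure, with media matched to each organism: blood-supplemented heart infusion agar for S. pneumoniae and sensitivity test agar for the remaining strains.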

Bacillus cereus IAM 1029 = test: MIC, Experiment 1; details: IAM1029, B. cereus IAM 1029, Gram +, read-out: Min. inhib. concentr. (MIC)
Outline: as §1

[2] = test system: Bacillus subtilis ATCC 6633; test: MIC, Experiment 1; details: ATCC6633, B. subtilis ATCC 6633, Gram +, read-out: Min. inhib. concentr. (MIC)
Outline: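 Agar MIC testing follows the Japan Society of Chemotherapy method. Compounds came from 1000 μg/ml aqueous standard solutions made from 5000 μg/ml stocks in DMSO or water. Blood-enriched heart infusion agar served for S. pneumoniae, and sensitivity test agar served for the other bacteria.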

Enterobacter cloacae 963 = test: MIC, Experiment 1; details: E. cloacae 963, Gram -, read-out: Min. inhib. concentr. (MIC)
Outline: as §1

[3] = test system: Escherichia coli NIHJ JC-2; test: MIC, Experiment 1; details: NIHJJC2, E. coli NIHJ JC-2, Gram -, read-out: Min. inhib. concentr. (MIC)
Outline: as §1

[4] = test system: Klebsiella pneumoniae PCI-602; test: MIC, Experiment 1; details: PCI602, K. pneumoniae PCI-602, Gram -, read-out: Min. inhib. concentr. (MIC)
Outline: as §1

[5] = test system: Micrococcus luteus ATCC 9341; test: MIC, Experiment 1; details: ATCC9341, M. luteus ATCC 9341, Gram +, read-out: Min. inhib. concentr. (MIC)
Outline: as §1

[6] = test system: Proteus mirabilis IFO 3849; test: MIC, Experiment 1; details: IFO3849, P. mirabilis IFO 3849, Gram -, read-out: Min. inhib. concentr. (MIC)
Outline: as §1

[7] = test system: Pseudomonas aeruginosa NCTC 10490; test: MIC, Experiment 1; details: NCTC10490, P. aeruginosa NCTC 10490, Gram -, read-out: Min. inhib. concentr. (MIC)
Outline: as §1

[8] = test system: Staphylococcus aureus ATCC 9144; test: MIC, Experiment 1; details: ATCC9144, S. aureus ATCC 9144, Gram +, read-out: Min. inhib. concentr. (MIC)
Outline: as §1

[9] = test system: Staphylococcus aureus Cowan I (IID 975); test: MIC, Experiment 1; details: IID975, S. aureus Cowan I (IID 975), Gram +, read-out: Min. inhib. concentr. (MIC)
Outline: as §1

[10] = test system: Staphylococcus aureus FDA 209P JC-1; test: MIC, Experiment 1; details: FDA209P, S. aureus FDA 209P JC-1, Gram +, read-out: Min. inhib. concentr. (MIC)
Outline: as §1

[11] = test system: Staphylococcus aureus FDA 243; test: MIC, Experiment 1; details: FDA243, S. aureus FDA 243, Gram +, read-out: Min. inhib. concentr. (MIC)
Outline: as §1

[12] = test system: Staphylococcus aureus IID 803; test: MIC, Experiment 1; details: IID803, S. aureus IID 803, Gram +, read-out: Min. inhib. concentr. (MIC)
Outline: as §1

[13] = test system: Staphylococcus aureus MS-353; test: MIC, Experiment 1; details: MS353, S. aureus MS-353, Gram +, read-out: Min. inhib. concentr. (MIC)
Outline: as §1

[14] = test system: Staphylococcus aureus Terajima (IID 670); test: MIC, Experiment 1; details: IID670, S. aureus Terajima (IID 670), Gram +, read-out: Min. inhib. concentr. (MIC)
Outline: as §1

[15] = test system: Streptococcus pneumoniae IID 552; test: MIC, Experiment 1; details: IID552, S. pneumoniae IID 552, Gram +, agar with 5% defibrinated horse blood, read-out: Min. inhib. concentr. (MIC)
Outline: as §1

[16] = test system: Streptococcus pneumoniae IID 554; test: MIC, Experiment 1; details: IID554, S. pneumoniae IID 554, Gram +, agar with 5% defibrinated horse blood, read-out: Min. inhib. concentr. (MIC)
Outline: as §1

[17] = test system: Streptococcus pyogenes Cook; test: MIC, Experiment 1; details: S. pyogenes Cook, Gram +, agar with 5% defibrinated horse blood, read-out: Min. inhib. concentr. (MIC)
Outline: (§2)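 Minimum inhibitory concentrations come from the Japan Society of Chemotherapy procedure. For streptococci, plates were heart infusion agar with 5% defibrinated horse blood after brain heart infusion broth preculture. Non-streptococcal strains were grown in sensitivity test broth and plated on sensitivity test agar.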

[18] = test system: Streptococcus pyogenes Su; test: MIC, Experiment 1; details: S. pyogenes Su, Gram +, agar with 5% defibrinated horse blood, read-out: Min. inhib. concentr. (MIC)
Outline: as §2

[19] = test system: Streptococcus pyogenes Sv; test: MIC, Experiment 1; details: S. pyogenes Sv, Gram +, agar with 5% defibrinated horse blood, read-out: Min. inhib. concentr. (MIC)
Outline: as §2

[20] = test system: clinically isolated Staphylococcus epidermidis; test: In vitro antibacterial activity against clinical isolates, Experiment 2; details: Staphylococcus epidermidis, 25 clinical strains S. epidermidis
Outline: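 Stock: compound diluted in sterile distilled water to 1000 μg/ml. Preculture: sensitivity test broth. MIC read-out: sensitivity test agar medium. Strains: clinical isolates, Nov. 1988–Jun. 1989.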

Which results are given for CN1Cc2csc3c(C(=O)O)c(=O)c4cc(F)c(N5CCC(=O)CC5)c1c4n23 [Compound (G), 9,1-(Methylimino)methano-7-fluoro-8-(4-oxopiperidino)-5-oxo-5H-thiazolo[3,2-a]quinoline-4-carboxylic acid]?
MIC [1]: ≤ 0.006 µg/mL; MIC (Bacillus cereus IAM 1029): 0.013 µg/mL (≈ 0.0324 µM); MIC [2]: ≤ 0.006 µg/mL; MIC (Enterobacter cloacae 963): 0.2 µg/mL (≈ 0.498 µM); MIC [3]: 0.1 µg/mL (≈ 0.249 µM); MIC [4]: ≤ 0.006 µg/mL; MIC [5]: 0.05 µg/mL (≈ 0.125 µM); MIC [6]: 0.2 µg/mL (≈ 0.498 µM); MIC [7]: 0.39 µg/mL (≈ 0.972 µM); MIC [8]: ≤ 0.006 µg/mL; MIC [9]: ≤ 0.006 µg/mL; MIC [10]: 0.013 µg/mL (≈ 0.0324 µM); MIC [11]: ≤ 0.006 µg/mL; MIC [12]: ≤ 0.006 µg/mL; MIC [13]: ≤ 0.006 µg/mL; MIC [14]: 0.013 µg/mL (≈ 0.0324 µM); MIC [15]: 0.025 µg/mL (≈ 0.0623 µM); MIC [16]: 0.025 µg/mL (≈ 0.0623 µM); MIC [17]: 0.025 µg/mL (≈ 0.0623 µM); MIC [18]: 0.013 µg/mL (≈ 0.0324 µM); MIC [19]: 0.025 µg/mL (≈ 0.0623 µM); MIC [20]: 0.006 to 0.2 µg/mL (≈ 0.0149 to 0.498 µM); MIC50 ([20]; 50% of strains, read-out: MIC50): 0.013 µg/mL (≈ 0.0324 µM); MIC90 ([20]; 90% of strains, read-out: MIC90): 0.2 µg/mL (≈ 0.498 µM)
